# Test results published in patent US12528837B2, “Aryl substituted polymyxin derivatives” (priority 2018, dated 2026).
# What was measured:
# [1] = Renal toxicity of Example 24 vs PMB after four doses in mouse; type: in vivo, mouse; conditions: for Urine β-2 microglobulin: CD-1 mice, urine 24 h, normalized to urinary creatinine, mean
# Protocol: Immediately after the fourth dose mice were transferred to metabolic cages and urine collected for 24 h. for determination of urinary biomarkers. After urine collection mice were sacrificed for renal histopathology.
# The urine biomarkers were normalized to urinary creatinine.
# HK-2 cells = assay: In vitro renal cell toxicity assay (HK-2); type: cell-based
# Procedure, shortened: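 HK-2 cells seeded 7,500/well, adhered overnight, then exposed to compound for 24 h at 37° C, 5% CO2, with 5% water and 0.5% DMSO. Background-subtracted, vehicle-normalised dose-response fitted with bottom fixed at zero; IC50 reported relative to PMB in the same run, median where repeated.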
substance,measurement,setting,value
Polymyxin B [reference compound],"Tubular Degeneration/necrosis (histopathology, animals affected)","[1]; CD-1 mice (n=5), sc 25 mg/kg four times at 8 h intervals",5/5 (2 min/
same,Urine β-2 microglobulin,[1]; sc 25 mg/kg four times at 8 h intervals,43.83
same,Urine β-2 microglobulin,[1]; sc […] four times at 8 h intervals,3.43
same,Basophilic Tubules (cortex) (animals affected),"[1]; mouse, in vivo, sc, 25 mg/kg",5/5 (1 min/
same,Mitotic Figures increased (animals affected),"[1]; mouse, in vivo, sc, 25 mg/kg",3/5
same,Urine Albumin,"[1]; mouse, in vivo, sc, 25 mg/kg",7.73
same,Urine Cystatin C,"[1]; mouse, in vivo, sc, 25 mg/kg",44.51
same,Urine Kim-1,"[1]; mouse, in vivo, sc, 25 mg/kg","3,446.42"
same,Urine NGAL,"[1]; mouse, in vivo, sc, 25 mg/kg",4.37
same,Cytotoxicity (measured IC50 relative to that recorded for Polymyxin B),HK-2 cells,1.0
